Read-outs that look alike come from different tables or passages of the source.
What was measured:
[1] = test system: HCT116 (p53+) (Colorectal Carcinoma)
[2] = test system: C-33A (Cervical carcinoma); assay: Cell viability analysis, cervical cancer C-33A; type: cell-based, human; conditions: Homo sapiens, C-33-A, 72 h, read-out: The results of antibiotic drug inhibiting cancer cell lines (cell viability analysis), C-33A
[3] = test system: 786-O (Renal adenocarcinoma); assay: Cell viability analysis, renal cancer 786-O; type: cell-based, human; conditions: Homo sapiens, 786-0, 72 h, read-out: The results of antibiotic drug inhibiting cancer cell lines (cell viability analysis), 786-O
TOV-21G = assay: Cell viability analysis, ovarian cancer TOV-21G; type: cell-based, human; conditions: Homo sapiens, TOV21G, 72 h, read-out: The results of antibiotic drug inhibiting cancer cell lines (cell viability analysis), TOV-21G
[4] = test system: MCF7 (Mammary Gland, Adenocarcinoma); assay: Cell viability analysis, breast cancer MCF7; type: cell-based, human; conditions: Homo sapiens, MCF7, 72 h
cancer cell lines = assay: Cell viability analysis (WST-1) on cancer cell lines; type: cell-based, human; conditions: drug 10 μM, 72 hours, WST-1; Table 3
[5] = test system: BCC (basal cell carcinoma); assay: Cell viability analysis, skin cancer BCC; type: cell-based, human; conditions: Homo sapiens, 72 h, read-out: The results of antibiotic drug inhibiting cancer cell lines (cell viability analysis), BCC
NIH: OVCAR-3 = assay: Cell viability analysis, ovarian cancer NIH: OVCAR-3; type: cell-based, human; conditions: Homo sapiens, OVCAR-3, 72 h, read-out: The results of antibiotic drug inhibiting cancer cell lines (cell viability analysis), NIH-OVCAR-3
[6] = test system: HeLa (Cervix Adenocarcinoma); assay: Cell viability analysis, cervical cancer HeLa; type: cell-based, human; conditions: Homo sapiens, HeLa, 72 h
U-2OS = assay: Cell viability analysis, osteosarcoma U-2OS; type: cell-based, human; conditions: Homo sapiens, U2OS, 72 h, read-out: The results of antibiotic drug inhibiting cancer cell lines (cell viability analysis), U2OS
[7] = test system: MDA-MB-231 (Mammary Gland, Adenocarcinoma); assay: Cell viability analysis, breast cancer MDA-MB-231; type: cell-based, human; conditions: Homo sapiens, MDA-MB-231, 72 h, read-out: The results of antibiotic drug inhibiting cancer cell lines (cell viability analysis), MDA-MB231
[8] = test system: MKN-45 (Gastric Adenocarcinoma); assay: Cell viability analysis, gastric cancer MKN-45; type: cell-based, human; conditions: Homo sapiens, MKN-45, 72 h
[9] = test system: AGS (Gastric Adenocarcinoma); assay: Cell viability analysis, gastric cancer AGS; type: cell-based, human; conditions: Homo sapiens, 72 h
[10] = test system: A549 (Lung Adenocarcinoma); assay: Cell viability analysis, lung cancer A549; type: cell-based, human; conditions: Homo sapiens, A549, 72 h
[11] = test system: TSGH-8301 (Urinary Bladder Carcinoma); assay: Cell viability analysis, bladder cancer TSGH-8301; type: cell-based, human; conditions: Homo sapiens, 72 h
[12] = test system: SAS (Tongue squamous cell carcinoma); assay: Cell viability analysis, tongue cancer SAS; type: cell-based, human; conditions: Homo sapiens, 72 h, read-out: The results of antibiotic drug inhibiting cancer cell lines (cell viability analysis), SAS
[13] = test system: HL-60 (Acute Promyelocytic Leukemia); assay: Cell viability analysis, leukemia HL-60; type: cell-based, human; conditions: Homo sapiens, HL-60, 72 h, read-out: cell viability (survival rate), HL-60, drug 10 μM, 72 hours, WST-1, OD450 nm
[14] = test system: PC3 (p53−) (Prostate Adenocarcinoma); assay: Cell viability analysis, prostate cancer PC3; type: cell-based, human; conditions: Homo sapiens, 72 h
[15] = test system: HepG2 (Hepatocellular Carcinoma); assay: Cell viability analysis, hepatic cancer HepG2; type: cell-based, human; conditions: Homo sapiens, HepG2, 72 h
[16] = test system: A375 (Amelanotic Melanoma); assay: Cell viability analysis, skin cancer A375; type: cell-based, human; conditions: Homo sapiens, A-375, 72 h
T24 = assay: Cell viability analysis, bladder cancer T24; type: cell-based, human; conditions: Homo sapiens, T-24, 72 h, read-out: The results of antibiotic drug inhibiting cancer cell lines (cell viability analysis), T24
[17] = test system: Hep3B (hepatocellular carcinoma); assay: Cell viability analysis, hepatic cancer Hep3B; type: cell-based, human; conditions: Homo sapiens, Hep3B, 72 h, read-out: The results of antibiotic drug inhibiting cancer cell lines (cell viability analysis), Hep3B
BxPC-3 = assay: Cell viability analysis, pancreatic cancer BxPC-3; type: cell-based, human; conditions: Homo sapiens, BXPC-3, 72 h, read-out: The results of antibiotic drug inhibiting cancer cell lines (cell viability analysis), BxPC-3
[18] = test system: HI650 (Lung Adenocarcinoma); assay: Cell viability analysis, lung cancer HI650; type: cell-based, human; conditions: Homo sapiens, NCI-H1650, 72 h
[19] = test system: LoVo (Colorectal Adenocarcinoma); assay: Cell viability analysis, colon cancer LoVo; type: cell-based, human; conditions: Homo sapiens, LoVo, 72 h
AsPC-1 = assay: Cell viability analysis, pancreatic cancer AsPC-1; type: cell-based, human; conditions: Homo sapiens, ASPC1, 72 h, read-out: The results of antibiotic drug inhibiting cancer cell lines (cell viability analysis), AsPC-1
[20] = read-out: The results of antibiotic drug inhibiting cancer cell lines (cell viability analysis), MCF-7, MCF-7, repeated experiment
[21] = read-out: cell viability (survival rate), MCF7, drug 10 μM, 72 hours, WST-1, OD450 nm
[22] = read-out: The results of antibiotic drug inhibiting cancer cell lines (cell viability analysis), HeLa, repeated experiment
[23] = read-out: cell viability (survival rate), HeLa, drug 10 μM, 72 hours, WST-1, OD450 nm
[24] = read-out: The results of antibiotic drug inhibiting cancer cell lines (cell viability analysis), MKN-45, MKN-45, repeated experiment
[25] = read-out: cell viability (survival rate), MKN-45, drug 10 μM, 72 hours, WST-1, OD450 nm
[26] = read-out: The results of antibiotic drug inhibiting cancer cell lines (cell viability analysis), AGS, repeated experiment
[27] = read-out: cell viability (survival rate), AGS, drug 10 μM, 72 hours, WST-1, OD450 nm
[28] = read-out: The results of antibiotic drug inhibiting cancer cell lines (cell viability analysis), A549, A549, repeated experiment
[29] = read-out: cell viability (survival rate), A549, drug 10 μM, 72 hours, WST-1, OD450 nm
[30] = read-out: The results of antibiotic drug inhibiting cancer cell lines (cell viability analysis), TSGH-8301, TSGH-8301, repeated experiment
[31] = read-out: cell viability (survival rate), TSGH, drug 10 μM, 72 hours, WST-1, OD450 nm
[32] = read-out: The results of antibiotic drug inhibiting cancer cell lines (cell viability analysis), PC-3, PC-3, repeated experiment
[33] = read-out: cell viability (survival rate), PC3, drug 10 μM, 72 hours, WST-1, OD450 nm
[34] = read-out: The results of antibiotic drug inhibiting cancer cell lines (cell viability analysis), HepG2, HepG2, repeated experiment
[35] = read-out: cell viability (survival rate), HepG2, drug 10 μM, 72 hours, WST-1, OD450 nm
[36] = read-out: The results of antibiotic drug inhibiting cancer cell lines (cell viability analysis), A375, A375, repeated experiment
[37] = read-out: cell viability (survival rate), A375, drug 10 μM, 72 hours, WST-1, OD450 nm
[38] = read-out: The results of antibiotic drug inhibiting cancer cell lines (cell viability analysis), H1650, H1650, repeated experiment
[39] = read-out: cell viability (survival rate), H1650, drug 10 μM, 72 hours, WST-1, OD450 nm
[40] = read-out: The results of antibiotic drug inhibiting cancer cell lines (cell viability analysis), LoVo, repeated experiment
[41] = read-out: cell viability (survival rate), LoVo, drug 10 μM, 72 hours, WST-1, OD450 nm

Structure (SMILES) | viability [1] [%] | viability at 10 µM [2] [%] | viability at 10 µM [3] [%] | viability at 10 µM (TOV-21G) [%] | viability at 10 µM [4, 20] [%] | viability at 10 µM [4, 21] [%] | inhibition effect on different cancer cell lines (cancer cell lines) | viability at 10 µM [5] [%] | viability at 10 µM (NIH: OVCAR-3) [%] | viability at 10 µM [6, 22] [%] | viability at 10 µM [6, 23] [%] | viability at 10 µM (U-2OS) [%] | viability at 10 µM [7] [%] | viability at 10 µM [8, 24] [%] | viability at 10 µM [8, 25] [%] | viability at 10 µM [9, 26] [%] | viability at 10 µM [9, 27] [%] | viability at 10 µM [10, 28] [%] | viability at 10 µM [10, 29] [%] | viability at 10 µM [11, 30] [%] | also measured
CC1(C)S[C@@H]2[C@H](NC(=O)Cc3ccccc3)C(=O)N2[C@H]1C(=O)O [Benzylpenicillin sodium] | 94 | 110 | 93.2 | 112 | 86.9 | 31.3 | significant inhibition effect | 97.7 | 110 | 107 | 57.1 | 71.5 | 94.7 | 124 | 43.1 | 110 | 54.8 | 97.2 | 36.4 | 131 | viability at 10 µM [11, 31]: 39.6%; viability at 10 µM [12]: 67%; viability at 10 µM [13]: 86.7%; viability at 10 µM [14, 32]: 106%; viability at 10 µM [14, 33]: 36.1%; viability at 10 µM [15, 34]: 108%; viability at 10 µM [15, 35]: 86.4%; viability at 10 µM [16, 36]: 113%; viability at 10 µM [16, 37]: 51.7%; viability at 10 µM (T24): 108%; viability at 10 µM [17]: 113%; viability at 10 µM (BxPC-3): 95.3%; viability at 10 µM [18, 38]: 121%; viability at 10 µM [18, 39]: 57.1%; viability at 10 µM [19, 40]: 78.3%; viability at 10 µM [19, 41]: 62.8%
C=C1[C@H](CO)[C@@H](O)C[C@@H]1n1cnc2c(=O)[nH]c(N)nc21 [Entecavir hydrate] | 99.9 | 96.7 | 92.7 | 85.5 | 92.9 | 58.6 | significant inhibition effect | 69.5 | 109 | 76.9 | 99.4 | 85.3 | 98.9 | 92.5 | 59.7 | 88.7 | 46.4 | 104 | 57.4 | 103 | viability at 10 µM (AsPC-1): 98.4%; viability at 10 µM [11, 31]: 53%; viability at 10 µM [13]: 74.1%; viability at 10 µM [14, 32]: 118%; viability at 10 µM [14, 33]: 81.2%; viability at 10 µM [15, 34]: 88.9%; viability at 10 µM [15, 35]: 98.8%; viability at 10 µM [16, 36]: 89%; viability at 10 µM [16, 37]: 98.6%; viability at 10 µM (T24): 96.4%; viability at 10 µM [17]: 90.8%; viability at 10 µM (BxPC-3): 97.2%; viability at 10 µM [18, 38]: 84.1%; viability at 10 µM [18, 39]: 80.8%; viability at 10 µM [19, 40]: 96.7%; viability at 10 µM [19, 41]: 91.6%
